Source: ChEMBL document CHEMBL5325470, “Design, synthesis and mechanism studies of dual EZH2/BRD4 inhibitors for cancer therapy” (Bioorg Med Chem, 2023)
The source made the active and inactive calls. The rule behind the calls is not given here.

Columns and labels:
A549 [1] = test: Induction of apoptosis in human A549 cells assessed as […] in Bax protein expression at 2 to 8 uM incubated for 48 hrs by Western blotting analysis; assay type: functional, cell-based; settings: dose 2-8 µM
MDA-MB-231 [2] = test: Inhibition of PRC2 in human MDA-MB-231 cells assessed as reduction in H3K27me3 level at 2 to 8 uM incubated for 48 hrs by Western blotting analysis; assay type: cell-based; settings: dose 2-8 µM
BT-549 = test: Antiproliferative activity against human BT-549 cells incubated for 72 hrs by MTT assay; assay type: functional, cell-based; settings: BT-549, 72 h
[3] = biological target: T1, Bromodomain-containing protein 4 (Homo sapiens, UniProt O60885); test: Inhibition of BRD4 in human MDA-MB-231 cells assessed as increase in p21 level at 2 to 8 uM incubated for 48 hrs by Western blotting analysis; assay type: cell-based; settings: dose 2-8 µM
Cell membrane = test: Induction of mitochondrial membrane potential loss in human HCT-116 cells assessed as decrease in red fluorescence incubated for 48 hrs by flow cytometry analysis; settings: Mitochondria, dose 2-8 µM
[4] = biological target: T2, Histone-lysine N-methyltransferase EZH2 (Homo sapiens, UniProt Q15910); test: Inhibition of EZH2 (unknown origin)
Target sequence in this assay (Q15910 whole entry): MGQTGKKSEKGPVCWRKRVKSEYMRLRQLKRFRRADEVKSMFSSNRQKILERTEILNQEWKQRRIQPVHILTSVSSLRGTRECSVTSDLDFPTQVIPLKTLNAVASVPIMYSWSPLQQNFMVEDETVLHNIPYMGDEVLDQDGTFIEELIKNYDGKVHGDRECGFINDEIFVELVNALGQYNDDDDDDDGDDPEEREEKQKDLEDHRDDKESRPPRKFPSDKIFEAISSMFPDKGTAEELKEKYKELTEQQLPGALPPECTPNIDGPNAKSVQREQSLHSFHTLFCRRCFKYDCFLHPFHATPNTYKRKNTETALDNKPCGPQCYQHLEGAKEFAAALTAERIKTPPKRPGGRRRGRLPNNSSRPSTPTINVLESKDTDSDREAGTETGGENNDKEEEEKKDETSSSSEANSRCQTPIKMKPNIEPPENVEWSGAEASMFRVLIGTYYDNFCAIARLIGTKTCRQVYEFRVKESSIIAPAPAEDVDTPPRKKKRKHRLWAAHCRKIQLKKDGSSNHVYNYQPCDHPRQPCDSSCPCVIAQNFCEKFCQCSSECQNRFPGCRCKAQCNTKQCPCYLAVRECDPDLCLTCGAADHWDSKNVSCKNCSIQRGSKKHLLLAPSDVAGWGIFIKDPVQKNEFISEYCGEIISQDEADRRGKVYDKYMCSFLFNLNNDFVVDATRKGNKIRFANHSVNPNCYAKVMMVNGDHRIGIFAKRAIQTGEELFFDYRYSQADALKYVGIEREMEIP

HCT-116 [5] = test: Antiproliferative activity against human HCT-116 cells assessed as reduction in number of colonies incubated for 48 hrs with replacement of normal media every day for 14 days; assay type: functional, cell-based; settings: dose 2-8 µM
HCT-116 [6] = test: Antiproliferative activity against human HCT-116 cells incubated for 72 hrs by MTT assay; assay type: functional, cell-based; settings: HCT-116, 72 h
[7] = biological target: T2, Histone-lysine N-methyltransferase EZH2; test: Inhibition of EZH2 in human A549 cells assessed as decrease in H3K27ac level at 2 to 8 uM incubated for 48 hrs by Western blotting analysis; assay type: cell-based; settings: dose 2-8 µM
Target sequence in this assay (Q15910 whole entry, looked up): as the sequence (Q15910 whole entry) above

[8] = biological target: T2, Histone-lysine N-methyltransferase EZH2; test: Inhibition of EZH2 in human HCT-116 cells assessed as decrease in H3K27ac level at 12 uM incubated for 48 hrs by Western blotting analysis; assay type: cell-based
Target sequence in this assay (Q15910 whole entry, looked up): as the sequence (Q15910 whole entry) above

[9] = biological target: T1, Bromodomain-containing protein 4; test: Inhibition of BRD4 in human HCT-116 cells assessed as increase in p21 level at 2 to 8 uM incubated for 48 hrs by Western blotting analysis; assay type: cell-based; settings: dose 2-8 µM
[10] = biological target: T1, Bromodomain-containing protein 4; test: Inhibition of BRD4 in human MDA-MB-231 cells assessed as reduction in c-Myc level at 2 to 8 uM incubated for 48 hrs by Western blotting analysis; assay type: cell-based; settings: dose 2-8 µM
HCT-116 [11] = test: Inhibition of PRC2 in human HCT-116 cells assessed as reduction in H3K27me3 level at 2 to 8 uM incubated for 48 hrs by Western blotting analysis; assay type: cell-based; settings: dose 2-8 µM
[12] = biological target: T2, Histone-lysine N-methyltransferase EZH2; test: Inhibition of EZH2 in human HCT-116 cells assessed as decrease in H3K27ac level at 2 to 8 uM incubated for 48 hrs by Western blotting analysis; assay type: cell-based; settings: dose 2-8 µM
Target sequence in this assay (Q15910 whole entry, looked up): as the sequence (Q15910 whole entry) above

MDA-MB-231 [13] = test: Antiproliferative activity against human MDA-MB-231 cells incubated for 72 hrs by MTT assay; assay type: functional, cell-based; settings: MDA-MB-231, 72 h
[14] = biological target: T1, Bromodomain-containing protein 4; test: Inhibition of BRD4 BD1 (unknown origin) incubated for 15 mins by TR-FRET method
A549 [15] = test: Antiproliferative activity against human A549 cells incubated for 72 hrs by MTT assay; assay type: functional, cell-based; settings: A549, 72 h
[16] = biological target: T1, Bromodomain-containing protein 4; test: Inhibition of BRD4 in human A549 cells assessed as reduction in c-Myc level at 2 to 8 uM incubated for 48 hrs by Western blotting analysis; assay type: cell-based; settings: dose 2-8 µM
[17] = biological target: T1, Bromodomain-containing protein 4; test: Inhibition of BRD4 in human A549 cells assessed as increase in p21 level at 2 to 8 uM incubated for 48 hrs by Western blotting analysis; assay type: cell-based; settings: dose 2-8 µM
[18] = biological target: T2, Histone-lysine N-methyltransferase EZH2; test: Inhibition of EZH2 in human MDA-MB-231 cells assessed as decrease in H3K27ac level at 12 uM incubated for 48 hrs by Western blotting analysis; assay type: cell-based
Target sequence in this assay (Q15910 whole entry, looked up): as the sequence (Q15910 whole entry) above

[19] = Binding affinity to recombinant PRC2 complex (unknown origin) incubated for 3 hrs in presence of SAM; set-up: species or system Homo sapiens
[20] = biological target: T2, Histone-lysine N-methyltransferase EZH2; test: Inhibition of EZH2 in human A549 cells assessed as decrease in H3K27ac level at 18 uM incubated for 48 hrs by Western blotting analysis; assay type: cell-based
Target sequence in this assay (Q15910 whole entry, looked up): as the sequence (Q15910 whole entry) above

A549 [21] = test: Induction of apoptosis in human A549 cells assessed as reduction in Bcl-2 protein expression at 2 to 8 uM incubated for 48 hrs by Western blotting analysis; assay type: functional, cell-based; settings: dose 2-8 µM
HCT-116 [22] = test: Induction of apoptosis in human HCT-116 cells at 2 to 8 uM incubated for 48 hrs by Annexin V-PE/7-AAD staining based flow cytometry analysis; assay type: functional, cell-based; settings: dose 2-8 µM
[23] = biological target: T2, Histone-lysine N-methyltransferase EZH2; test: Inhibition of EZH2 in human MDA-MB-231 cells assessed as decrease in H3K27ac level at 2 to 8 uM incubated for 48 hrs by Western blotting analysis; assay type: cell-based; settings: dose 2-8 µM
Target sequence in this assay (Q15910 whole entry, looked up): as the sequence (Q15910 whole entry) above

A549 [24] = test: Inhibition of PRC2 in human A549 cells assessed as reduction in H3K27me3 level at 2 to 8 uM incubated for 48 hrs by Western blotting analysis; assay type: cell-based; settings: dose 2-8 µM
HCT-116 [25] = test: Induction of cell cycle arrest in human HCT-116 cells assessed as accumulation of cells at G0/G1 phase at 2 to 8 uM incubated for 48 hrs by RNAase-A and PI staining based flow cytometry analysis; assay type: functional; settings: dose 2-8 µM
[26] = biological target: T1, Bromodomain-containing protein 4; test: Inhibition of BRD4 in human HCT-116 cells assessed as reduction in c-Myc level at 2 to 8 uM incubated for 48 hrs by Western blotting analysis; assay type: cell-based; settings: dose 2-8 µM

IC50 (BT-549): 3.97 µM
inhibition [3]: Active
Activity (Cell membrane): Dose-Dependent Effect
IC50 [4]: 82 nM
IC50 (HCT-116 [6]): 1860 nM
inhibition [7]: Active
inhibition [8]: inactive
inhibition [9]: Active
inhibition [10]: Active
inhibition [12]: Active
IC50 (MDA-MB-231 [13]): 2310 nM
IC50 [14]: 134 nM
IC50 (A549 [15]): 4.63 µM
inhibition [16]: Active
inhibition [17]: Active
inhibition [18]: inactive
Kd [19]: 180 nM
inhibition [20]: inactive
inhibition [23]: Active
inhibition [26]: Active
Structure (SMILES): Cc1cc(C)c(CNC(=O)c2cc(NCCCCCNC(=O)C[C@@H]3N=C(c4ccc(Cl)cc4)c4c(sc(C)c4C)-n4c(C)nnc43)cc3c2cnn3C(C)C)c(=O)[nH]1
Activity (A549 [1]): Active
inhibition (MDA-MB-231 [2]): Active
Activity (HCT-116 [5]): Dose-Dependent Effect
inhibition (HCT-116 [11]): Active
Activity (A549 [21]): Active
Activity (HCT-116 [22]): Active
inhibition (A549 [24]): Active
Activity (HCT-116 [25]): Active
